Reference: patent publication US20090099133A1, “Isoquinolines Derivatives as Igf-1R Inhibitors” (priority 2005, published 2009)
≈ marks a conversion by molar mass, not a printed value. Structures can show the parent of a compound that is named as a salt. Where two headings read alike, the source gives them in different places. Values belong to the molecule of their own block, whether it stands above or below them.

Legend:
[1] = system: phospho-MAPK (Erk1/2) in DU-145 cells; assay: Inhibition of IGF-1 stimulated phosphorylation of MAPK in DU-145 cells (immunoblotting); type: cell-based; conditions: Homo sapiens
Description: (§1) DU-145 cells (prostate cancer) were incubated over night with the title compound in serum free medium. After stimulation for 15 minutes with IGF-1 (50 nM), the cells were lyzed and the lysates analysed by immunoblotting for phospho-MAPK and phospho-AKT.

[2] = system: phospho-AKT in DU-145 cells; assay: Inhibition of IGF-1 stimulated phosphorylation of AKT in DU-145 cells (immunoblotting); type: cell-based; conditions: Homo sapiens, 0.25 h, incubated over night in serum free medium, IGF-1 (50 nM) stimulation 15 minutes
Description: as §1

[3] = Solubility in a physiologically acceptable buffer (sodium phosphate buffer, pH 7.4); type: physicochemical; conditions: sodium phosphate buffer at pH 7.4
Excerpt: The corresponding solubility of the parent compound is about 20 microgram.

alkaline phosphatase = target: T1, alkaline phosphatase (Bos taurus, UniProt P19111); assay: Dephosphorylation by alkaline phosphatase in vitro; type: in vitro ADME; conditions: bovine, bovine alkaline phosphatase (type VII S, Sigma-Aldrich); phosphatase concentration of 10 units/ml, 37° C., pH 7.4; read-out: half-life time of dephosphorylation
T1 construct: purchased Sigma-Aldrich type VII S
Excerpt: The ability of bovine alkaline phosphatase (type VII S, Sigma-Aldrich) to dephosphorylate the title compound was investigated in vitro. […] Intravenous administration of the title compound is consequently expected to result in a rapid formation of the active moiety (1R)-1-(3,4,5-trimethoxyphenyl)-2-formyl-5-hydroxy-6-methoxy-1,2,3,4-tetrahydroisoquinoline (see FIG. 1).

T1 sequence (P19111 20-506 limits assumed): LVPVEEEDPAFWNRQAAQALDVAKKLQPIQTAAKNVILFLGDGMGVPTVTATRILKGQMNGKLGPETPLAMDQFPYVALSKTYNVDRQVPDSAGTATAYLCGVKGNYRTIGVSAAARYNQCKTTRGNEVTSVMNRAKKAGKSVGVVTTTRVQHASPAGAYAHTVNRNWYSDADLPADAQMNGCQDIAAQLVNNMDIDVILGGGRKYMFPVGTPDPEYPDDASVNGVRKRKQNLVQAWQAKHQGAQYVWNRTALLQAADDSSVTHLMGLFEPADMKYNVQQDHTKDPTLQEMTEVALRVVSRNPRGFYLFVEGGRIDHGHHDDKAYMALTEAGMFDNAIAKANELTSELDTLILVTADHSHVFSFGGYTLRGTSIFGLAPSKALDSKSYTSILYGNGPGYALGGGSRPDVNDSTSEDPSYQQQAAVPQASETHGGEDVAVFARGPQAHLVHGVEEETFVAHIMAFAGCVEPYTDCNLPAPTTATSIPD

Structure (SMILES): COc1cc([C@@H]2c3cc4c(cc3[C@H](O)[C@H]3COC(=O)[C@@H]23)OCO4)cc(OC)c1OC [Picropodophyllin, reference compound]
- IC50 ([1]; standard, read-out: IC50 inhibition of phospho-MAPK (Erk1/2)): ~5000 nM

- melting point: 190 to 192 °C
- IC50 [2]: 40 nM
- solubility ([3]; aqueous buffer, parent compound, read-out: solubility): ~20 µg/mL (≈ 53.6 µM)
- solubility ([3]; parent compound): about 20 microgram
- IC50 ([1]; 0.25 h, incubated over night in serum free medium, IGF-1 (50 nM) stimulation 15 minutes, read-out: IC50 inhibition of phosphorylation of MAPK (Erk1/2)): 50 nM
Structure (SMILES): COc1ccc2c(c1O)CCN(C=O)[C@@H]2c1cc(OC)c(OC)c(OC)c1 [(1R)-1-(3,4,5-trimethoxyphenyl)-2-formyl-5-hydroxy-6-methoxy-1,2,3,4-tetrahydroisoquinoline]

Structure (SMILES): COc1cc([C@@H]2c3ccc(OC)c(OP(=O)(O)O)c3CCN2C=O)cc(OC)c1OC [(1R)-1-(3,4,5-trimethoxyphenyl)-2-formyl-5-(dihydrogen phosphate)-6-methoxy-1,2,3,4-tetrahydroisoquinoline]
- half-life (alkaline phosphatase): 8 min
- solubility ([3]; aqueous buffer, read-out: solubility): > 50000 µg/mL

Structure (SMILES): COc1cc([C@@H]2c3ccc(OC)c(OP(=O)(O)O)c3CCN2C=O)cc(OC)c1OC (as salt: phosphate) [(1R)-1-(3,4,5-trimethoxyphenyl)-2-formyl-5-(dihydrogen phosphate)-6-methoxy-1,2,3,4-tetrahydroisoquinoline]
- melting point: 138 to 141 °C
